This note sets out measurements from patent US20020010166A1, “CRYSTALLINE PROGESTAGENS” (priority 1997, published 2002).

Data set [1] can be described thus: Differential Scanning Calorimetry (DSC) of crystalline forms of Org 30659. Particulars: determined by DSC, heating rate 5.0° C./min, from the melting peak. The data set is classed as physicochemical. The procedure: Differential Scanning Calorimetry (DSC)
DSC curves were recorded using a Seiko DSC-120 instrument. Closed aluminium pans having a volume of 5 μl were used in combination with a nitrogen flow of 50 ml/min. The heating rate was 5.0° C./min.
DSC curves of crystalline forms of Org 30659. The horizontal axis represents the temperature in ° C. (heating), the vertical axis represents heat in μW or mW.
Background: Differential scanning calorimetry records heat flow against a reference as temperature is scanned.

Data set [2] in a line: Relative stability of crystalline forms on heating / in boiling water. In kind it is physicochemical. The following applies: at temperatures below 155° C., including subjection to boiling water.

Values joined by “and” are separate entries in the source; they are usually repeats but may differ in a detail not shown here. Equal entries are not always repeated.

`C#C[C@]1(O)C=C[C@H]2[C@@H]3CCC4=CC(=O)CC[C@@H]4[C@H]3C(=C)C[C@@]21C` [form (B), (17α)-17-hydroxy-11-methylene-19-norpregna-4,15-diene-20-yn-3-one]: in data set [1], the “thermodynamic stability, enthalpy ΔH” value is 70 mJ/mg and 70.4 mJ/mg.

Take `C#C[C@]1(O)C=C[C@H]2[C@@H]3CCC4=CC(=O)CC[C@@H]4[C@H]3C(=C)C[C@@]21C` [form (C), (17α)-17-hydroxy-11-methylene-19-norpregna-4,15-diene-20-yn-3-one]: the “thermodynamic stability, enthalpy ΔH” value in data set [1] and in data set [1] (listed as form C) was 71.9 mJ/mg each time.

Take `C#C[C@]1(O)C=C[C@H]2[C@@H]3CCC4=CC(=O)CC[C@@H]4[C@H]3C(=C)C[C@@]21C` [form (A), (17α)-17-hydroxy-11-methylene-19-norpregna-4,15-diene-20-yn-3-one]: the “thermodynamic stability, enthalpy ΔH” value in data set [1] is 84.3 mJ/mg and 84 mJ/mg. Besides, the “relative stability of the crystalline form” value in data set [2] was “the most stable one”.
